Test: Compatibility (precipitation) of polyvinylalcohol-acetate copolymer with charged active ingredients
Assay type: physicochemical
Settings: for Behaviour of polyvinylalcohol when formulated with the charged active ingredient: oil in water emulsion / solution of the active ingredient; for Formulability as oil-in-water emulsion (EW): Mowiol 4-88/SPAN 40 and TWEEN 40 system
From the text: One of the challenges faced when formulating pesticidal compositions is the compatibility of active ingredients with additional formulation ingredients, such as surfactants. This is especially a challenge when the active ingredient is highly charged.

SMILES	Behaviour of polyvinylalcohol when formulated with the charged active ingredient	Quantity at the maximum ratio of Mowiol 4-88 to glufosinate and water at which the copolymer does not precipitate (ammonium glufosinate / Mowiol 4-88 (20% w/w in water) / water 90.15% w/w) [% w/w]	Formulability as oil-in-water emulsion (EW)	Quantity at the maximum ratio of Mowiol 4-88 to glyphosate and water at which the copolymer does not precipitate (potassium glyphosate / Mowiol 4-88 (20% w/w in water) / water 93.48% w/w) [% w/w]
C[n+]1ccc(-c2cc[n+](C)cc2)cc1 [paraquat]	readily dissolves			
CP(=O)(O)CCC(N)C(=O)O.N (stereo not shown) [Ammonium glufosinate]		8.49		
O=C(O)CNCP(=O)(O)O [glyphosate]	precipitates out of solution		cannot be formulated as an EW at a commercially acceptable concentration	
O=C(O)CNCP(=O)([O-])O.[K+] [Potassium glyphosate]				5.76
CP(=O)(O)CCC(N)C(=O)O (stereo not shown) [glufosinate]	precipitates out of solution		cannot be formulated as an oil-in-water emulsion (EW) at a commercially acceptable concentration	
